Experimental data taken from US20070128217A1 (priority 2003, published 2007).

Tests used:
[1] = test system: recombinant human anti-SARS-CoV antibody 03-018; assay type: binding; parameters: Binding of antibody 03-018 to linear peptides of the N protein of SARS-CoV Urbani / Binding of antibody 03-018 to looped/cyclic peptides of the N protein of SARS-CoV Urbani: unit not given here
[2] = test system: control sera (pooled serum of ten healthy LUMC hospital workers; commercial negative donor pooled serum from the Dutch bloodbank); assay type: binding, human; parameters: Binding of Control serum LUMC to linear peptides / Binding of Control serum Blood-bank to linear peptides / Binding of Control serum LUMC to looped peptides / Binding of Control Serum Blood-Bank to Looped peptides / Binding of Control serum LUMC to linear peptides of the protein M of SARS-CoV Urbani / Binding of Control serum Blood-bank to linear peptides of the protein M of SARS-CoV Urbani / Binding of Control serum LUMC to looped peptides of the protein M of SARS-CoV Urbani / Binding of Control Serum Blood-Bank to Looped peptides of the protein M of SARS-CoV Urbani: unit not given here
[3] = test system: antibodies in sera from SARS patients (sera 1a, 1b, 2, 6, 37, 62, London, SARS-yellow, SARS-green); assay type: binding, human; parameters: Binding of serum 6 to linear peptides of protein X1 of SARS-CoV Urbani / Binding of serum 37 to linear peptides of protein X1 of SARS-CoV Urbani / Binding of serum 6 to looped/cyclic peptide (PEPSCAN-ELISA) / Binding of serum 37 to looped/cyclic peptide (PEPSCAN-ELISA) / Binding of serum 37 to looped/cyclic peptides of protein X1 of SARS-CoV Urbani / Binding of serum 6 to linear peptides of protein X2 / Binding of serum 37 to linear peptides of protein X2 / Binding of serum 37 to looped/cyclic peptides of protein X2 of SARS-CoV Urbani / Binding of serum 6 to linear peptides of protein M of SARS-CoV Urbani / Binding of serum 37 to linear peptides of protein M of SARS-CoV Urbani / Binding of serum 6 to looped/cyclic peptides of protein M of SARS-CoV Urbani / Binding of serum 37 to looped/cyclic peptides of protein M of SARS-CoV Urbani / Binding of serum 6 to linear peptides of protein X3 of SARS-CoV Urbani / Binding of serum 37 to linear peptides of protein X3 of SARS-CoV Urbani / Binding of serum 37 to looped/cyclic peptides of protein X3 of SARS-CoV Urbani / Binding of serum 6 to linear peptides of protein X4 of SARS-CoV Urbani / Binding of serum 37 to linear peptides of protein X4 of SARS-CoV Urbani / Binding of serum 37 to looped/cyclic peptides of protein X4 of SARS-CoV Urbani / Binding of serum 6 to linear peptides of protein X5 of SARS-CoV Urbani / Binding of serum 37 to linear peptides of protein X5 of SARS-CoV Urbani / Binding of serum 37 to looped/cyclic peptides of protein X5 of SARS-CoV Urbani / Binding of serum 6 to linear peptides of protein N of SARS-CoV Urbani / Binding of serum 37 to linear peptides of protein N of SARS-CoV Urbani / Binding of serum 6 to linear peptide (PEPSCAN-ELISA) / Binding of serum 1a to looped/cyclic peptides of protein N of SARS-CoV Urbani / Binding of serum 1b to looped/cyclic peptides of protein N of SARS-CoV Urbani / Binding of serum 2 to looped/cyclic peptides of protein N of SARS-CoV Urbani / Binding of serum 6 to looped/cyclic peptides of protein N of SARS-CoV Urbani / Binding of serum 37 to looped/cyclic peptides of protein N of SARS-CoV Urbani / Binding of serum 62 to looped/cyclic peptides of protein N of SARS-CoV Urbani / Binding of serum London to looped/cyclic peptides of protein N of SARS-CoV Urbani / Binding of serum SARS-green to looped/cyclic peptides of protein N of SARS-CoV Urbani: unit not given here
[4] = test system: rabbit serum obtained by immunizing a rabbit with the SARS-CoV strain Frankfurt 1; assay type: binding; parameters: Binding of a rabbit serum to linear peptides / Binding of a rabbit serum to looped peptides / Rabbit serum linear peptides / Rabbit serum looped peptides / Binding of a rabbit serum to linear peptides of protein N of SARS-CoV Urbani (Rabbit serum linear peptides) / Binding of a rabbit serum to looped/cyclic peptides of protein N of SARS-CoV Urbani (Rabbit serum looped peptides): unit not given here

HGKEELRFPRGQGVP
Binding of antibody 03-018 to linear peptides of the N protein of SARS-CoV Urbani [1]: 0.1 | Binding of antibody 03-018 to looped/cyclic peptides of the N protein of SARS-CoV Urbani [1]: 0.2 | Binding of Control Serum Blood-Bank to Looped peptides [2]: 0.5 | Binding of Control serum Blood-bank to linear peptides [2]: 0.8 | Binding of Control serum LUMC to linear peptides [2]: 0.6 | Binding of Control serum LUMC to looped peptides [2]: 0.5 | Binding of serum 1a to linear peptides of protein N of SARS-CoV Urbani [3]: 0.2 | Binding of serum 1a to looped/cyclic peptides of protein N of SARS-CoV Urbani [3]: 0.3 | Binding of serum 1b to linear peptides of protein N of SARS-CoV Urbani [3]: 0.2 | Binding of serum 1b to looped/cyclic peptides of protein N of SARS-CoV Urbani [3]: 0.2 | Binding of serum 2 to linear peptides of protein N of SARS-CoV Urbani [3]: 0.3 | Binding of serum 2 to looped/cyclic peptides of protein N of SARS-CoV Urbani [3]: 0.4 | Binding of serum 6 to linear peptides of protein N of SARS-CoV Urbani [3]: 0.1 | Binding of serum 6 to looped/cyclic peptides of protein N of SARS-CoV Urbani [3]: 0.2 | Binding of serum 37 to linear peptides of protein N of SARS-CoV Urbani [3]: 0.7 | Binding of serum 37 to looped/cyclic peptides of protein N of SARS-CoV Urbani [3]: 0.5 | Binding of serum 62 to linear peptides of protein N of SARS-CoV Urbani [3]: 0.7 | Binding of serum 62 to looped/cyclic peptides of protein N of SARS-CoV Urbani [3]: 0.3 | Binding of serum London to linear peptides of protein N of SARS-CoV Urbani [3]: 0.5 | Binding of serum London to looped/cyclic peptides of protein N of SARS-CoV Urbani [3]: 0.4 | Binding of serum SARS-green to linear peptides of protein N of SARS-CoV Urbani [3]: 0.5 | Binding of serum SARS-green to looped/cyclic peptides of protein N of SARS-CoV Urbani [3]: 0.2 | Binding of serum SARS-yellow to linear peptides of protein N of SARS-CoV Urbani [3]: 0.7 | Binding of serum SARS-yellow to looped/cyclic peptides of protein N of SARS-CoV Urbani [3]: 0.5 | Binding of a rabbit serum to linear peptides of protein N of SARS-CoV Urbani (Rabbit serum linear peptides) [4]: 0.1 | Binding of a rabbit serum to looped/cyclic peptides of protein N of SARS-CoV Urbani (Rabbit serum looped peptides) [4]: 0.3

HIDAYKTFPPTEPKK
Binding of antibody 03-018 to linear peptides of the N protein of SARS-CoV Urbani [1]: 0.1 | Binding of antibody 03-018 to looped/cyclic peptides of the N protein of SARS-CoV Urbani [1]: 0.2 | Control Serum Blood-Bank Looped peptides [2]: 0.4 | Control serum Blood-bank linear peptides [2]: 0.6 | Control serum LUMC linear peptides [2]: 0.7 | Control serum LUMC looped peptides [2]: 0.3 | Binding of serum 1a to linear peptides of protein N of SARS-CoV Urbani [3]: 0.2 | Binding of serum 1a to looped/cyclic peptides of protein N of SARS-CoV Urbani [3]: 0.2 | Binding of serum 1b to linear peptides of protein N of SARS-CoV Urbani [3]: 0.1 | Binding of serum 1b to looped/cyclic peptides of protein N of SARS-CoV Urbani [3]: 0.1 | Binding of serum 2 to linear peptides of protein N of SARS-CoV Urbani [3]: 0.2 | Binding of serum 2 to looped/cyclic peptides of protein N of SARS-CoV Urbani [3]: 0.2 | Binding of serum 6 to linear peptides of protein N of SARS-CoV Urbani [3]: 0.2 | Binding of serum 6 to looped/cyclic peptides of protein N of SARS-CoV Urbani [3]: 0.1 | Binding of serum 37 to linear peptides of protein N of SARS-CoV Urbani [3]: 0.6 | Binding of serum 37 to looped/cyclic peptides of protein N of SARS-CoV Urbani [3]: 0.3 | Binding of serum 62 to linear peptides of protein N of SARS-CoV Urbani [3]: 0.6 | Binding of serum 62 to looped/cyclic peptides of protein N of SARS-CoV Urbani [3]: 0.2 | Binding of serum London to linear peptides of protein N of SARS-CoV Urbani [3]: 0.4 | Binding of serum London to looped/cyclic peptides of protein N of SARS-CoV Urbani [3]: 0.3 | Binding of serum SARS-green to linear peptides of protein N of SARS-CoV Urbani [3]: 0.2 | Binding of serum SARS-green to looped/cyclic peptides of protein N of SARS-CoV Urbani [3]: 0.0 | Binding of serum SARS-yellow to linear peptides of protein N of SARS-CoV Urbani [3]: 0.5 | Binding of serum SARS-yellow to looped/cyclic peptides of protein N of SARS-CoV Urbani [3]: 0.0 | Binding of a rabbit serum to linear peptides of protein N of SARS-CoV Urbani (Rabbit serum linear peptides) [4]: 0.1 | Binding of a rabbit serum to looped/cyclic peptides of protein N of SARS-CoV Urbani (Rabbit serum looped peptides) [4]: 0.0
